Patent US20120184594A1, “PHENYLPYRROLIDINE COMPOUNDS” (Ferrer Internacional S.A., priority 2007, published 2012)

Assays:
[1] = biological target: T1, recombinant human MT1 receptor (Homo sapiens, UniProt P48039); experiment: Agonist activity on MT1 receptors (aequorin luminescence, Gα16 co-expressing cell line); assay type: cell-based; settings: percentage activity with respect to the reference agonist at its EC100; for MT1 agonism 1 nM: compound at 1 nM; for MT1 agonism 100 nM: compound at 100 nM, in %
T1 construct: expressed in transfected cells; host or cells: unnamed cell line co-expressing mitochondrial apoaequorin and the Gα16 subunit
From the text: Determination of the agonist activity on MT1 receptors
In order to screen compounds for the MT1 receptor a cell line is used that is characterised by stable overexpression of the recombinant human MT1 receptor in a cell line that in turn co-expresses mitochondrial apoaequorin and the Gα16 subunit.
The Gα16 subunit belongs to the G protein family, formed by GPCR, wherein the transduction of intracellular signals occurs via phospholipase (PLC). PLC activation produces an increase in inositol-triphosphate levels that leads to an increase in intracellular calcium. Gα16 overexpression thus allows an increase in intracellular calcium levels that is independent and compatible with the study receptor's own signal transduction pathway.
Following its binding to calcium, the aequorin oxidises coelenterazine to coelenteramide, a reaction that releases CO2 and light.
The trial protocol for the screening of possible agonists consists in collecting the cells and keeping them in suspension overnight in the presence of coelenterazine in order to reconstitute aequorin. On the following day the cells are injected on a plate where the compounds to be screened are diluted, and the luminescence released is read immediately. When wishing to study the possible antagonism of the same compounds, the reference agonist compound is added in the same well after 15-30 min from the first injection and the luminescence released is assessed.
Agonist activity is calculated as percentage activity with respect to the reference agonist at the concentration corresponding to its EC100. Antagonist activity is expressed as percentage inhibition over the reference agonist activity at the concentration corresponding to its EC80.

[2] = Rat plasma levels and brain/plasma ratio after administration; assay type: in vivo; settings: 15 min after administration of 1 mg/Kg; for concentration at 15 min: plasma
From the text: (§1) Moreover, the compounds of the present invention advantageously provide relevant pharmacokinetic improvements.

[3] = background statement; cited from earlier work
[4] = Metabolic stability by incubation in human microsomes; assay type: in vitro ADME; settings: disappearance of compound, 120 min, 1 μM
From the text: as §1

T1 sequence (P48039 whole entry): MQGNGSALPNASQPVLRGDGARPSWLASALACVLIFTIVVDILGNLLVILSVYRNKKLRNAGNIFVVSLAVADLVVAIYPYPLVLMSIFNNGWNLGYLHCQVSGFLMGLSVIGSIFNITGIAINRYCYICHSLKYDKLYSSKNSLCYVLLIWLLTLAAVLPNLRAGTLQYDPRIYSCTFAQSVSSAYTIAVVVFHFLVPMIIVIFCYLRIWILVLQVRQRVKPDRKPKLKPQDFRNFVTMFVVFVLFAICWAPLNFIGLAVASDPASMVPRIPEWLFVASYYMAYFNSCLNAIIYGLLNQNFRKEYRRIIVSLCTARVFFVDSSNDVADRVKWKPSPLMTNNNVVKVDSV

Row | Molecule | MT1 agonism 1 nM [1] | MT1 agonism 100 nM [1] | Kp at 0.25 h ([2]; brain/plasma) | concentration at 15 min [2] | clearance [3] | metabolic stability [4]
1 | COc1cccc(N2CC[C@H](NC(=O)CC(C)C)C2)c1 [Example 8, (S)—N-[1-(3-methoxy-phenyl)-pyrrolidin-3-yl]-3-methyl-butyramide] | 50.1% | 110.3 | 1 | 15.1 ng/mL | – | –
2 | (S)-[1-(3-methoxy-phenyl)-pyrrolidin-3-yl]-butyramide [Example 7] | 33.4% | 99.6 | – | – | – | –
3 | COc1cccc(N2CC[C@H](NC(C)=O)C2)c1 [Example 4, (S)—N-[1-(3-methoxy-phenyl)-pyrrolidin-3-yl]-acetamide] | 34.4% | 102.7 | – | – | – | –
4 | CCC(=O)NCC[C@@H]1CCc2ccc3c(c21)CCO3 [Ramelteon, N-[2-[(8S)-1,6,7,8-tetrahydro-2H-indeno[5,4-b]furan-8-yl)ethyl]propionamide, reference compound] | 50% | 117.5 | – | – | 88% | –
5 | COc1ccc2[nH]cc(CCNC(C)=O)c2c1 [Melatonin, reference compound] | 51.8% | 100.5 | – | – | – | –
6 | CCC(=O)NCC[C@@H]1CCc2ccc(OC)cc21 [(1S)—N-[2-(6-methoxy-indan-1-yl)ethyl]-propionamide, reference compound] | – | – | – | 10.1 ng/mL | – | less than 30%
7 | CCC(=O)N[C@H]1CCN(c2cccc(OC)c2)C1 [Example 3, (S)—N-[1-(3-methoxy-phenyl)-pyrrolidin-3-yl]-propionamide] | 46.7% | 109.9 | – | – | – | –
